Measured values as given in US10849989B2, “Isolated composite drug and carrier nanoparticles” (University of Limerick, priority 2016, dated 2020).

What was measured:
[1] = isoelectric point; cited from earlier work
[2] = Zeta potential determination (electrophoretic light scattering, Malvern Zetasizer Nano ZSP); type: physicochemical; conditions: particles without surface treatment agent, suspension in water, 25° C.
Description: Zeta potential can be determined from electrophoretic mobility using the Smoluchowski calculation. The electrophoretic mobility value can be determined at 25° C. by electrophoretic light scattering (ELS), e.g. using a Malvern Zetasizer Nano ZSP system. Such commercially available ELS instrumentation will directly provide zeta potential values. Aqueous suspensions are filled into a folded capillary cell and equilibrated at 25° C. for 120 seconds before measurement. Three measurements are taken per run and each sample is run twice. The average value and the variation between measurements can be reported.
Unless otherwise stated, reference to zeta potential is a reference to the zeta potential of a suspension of the particles in water at neutral pH (pH 7) at standard ambient temperature and pressure (SATP, 25° C. and 100 kPa).
Zetapotential measurements were conducted on a Malvern Zetasizer Nano ZSP system. Zetapotential was determined from the electrophoretic mobility using the Smoluchowski approximation. The samples (without dilution) were filled into a folded capillary cell and equilibrated at 25° C. for 120 s before measurement. Three measurements were taken per run and each sample was run twice. The average value and the variation between measurements were reported.

[3] = Particle size analysis by laser diffraction (Malvern Mastersizer 3000); type: physicochemical; conditions: water as dispersion medium
Description: Particle size can be determined by laser diffraction, for example using a Malvern Mastersizer 3000.
Particle size measurements were performed by laser diffraction using a Malvern Mastersizer 3000, with water as the dispersion medium. In cases where the particle size was not stable, HPMC and SDS were added to the water dispersant at a concentration of 0.038 mg/mL each to minimise variation between consecutive measurements. Precipitated drug suspensions were diluted by a factor of 5 with water prior to their introduction to the measurement vessel. An MMT control was treated by the conditions used during antisolvent precipitation before measuring its particles size. An obscuration rate of 7-10%, a stir rate of 2300 rpm, a 1 min pre-measurement delay (including 20 sec with 5% sonication power) were the conditions used during all size measurements. A refractive index of 1.55 and an absorption index of 0.01 were used for FF measurements. A refractive index of 1.55 and an absorption index of 0.1 were used for MMT measurements. Four measurements were taken per run and each sample was run twice. The D50 was reported for each size distribution and averaged across all measurements. Measurement variations were also reported.

[4] = Drug loading of nanoparticles on carrier; type: physicochemical; conditions: on the PA-MMT carrier (4.6 mg PA/g MMT)
Text: The drug loading in % w/w is the amount of drug in grams per 100 g of functionalised carrier particles. A high drug loading is beneficial for delivering a sufficient dose to a patient. In embodiments the composite has a drug loading of at least 2, 4, 6, 8, 9, 10, 15, 20, 30, 40 or 50% w/w. In embodiments the composite has a drug loading of no more than 100, 90, 80 or 70% w/w.
The drug loading (% w/w) can also be determined by dissolution testing whereby a known mass of dry drug loaded carrier particles is dissolved in a known volume of dissolution media. […] The concentration of drug in the dissolution media is measured by UV/Vis and/or HPLC spectroscopic methods until it stops increasing with time. The mass of drug present on the known mass of drug loaded carrier particles can thus be estimated and the drug loading in (% w/w) can be calculated.
Nanoparticles of both fenofibrate (FF) and mefenamic acid (MEF) were generated by antisolvent precipitation. An organic solution of FF in ethanol (1 mL, 50 mg/mL) was quickly introduced by Eppendorf pipet to 10 mL antisolvent containing (a) water, (b) an MMT suspension in water (50 mg/mL, equilibrated for >2 hrs) or (c) a protamine-modified MMT suspension in water (50 mg/mL, 4.6-189.9 mg PA/g MMT, equilibrated for >2 hrs). Solutions/suspensions were maintained at 25° C. under rapid agitation (800 rpm) throughout the precipitation process. […]

Compound	pI [1]	zeta potential [2] [mV]	particle size D50 [3] [μm]	drug loading [4] [%]
C[C@H](N)C(=O)O [Alanine]	6.00			
Cc1cccc(Nc2ccccc2C(=O)O)c1C [mefenamic acid]		−35.3	0.84±0.05	4.8
Avidin [Avidin (glycoprotein)]	10.5			
Galatine B	5			
Gelatine A	6-9			
